Assay results from ChEMBL document CHEMBL1151440, “Safety and pharmacokinetics of GSK364735, a human immunodeficiency virus type 1 integrase inhibitor, following single and repeated administration in healthy adult subjects” (Antimicrob Agents Chemother, 2007).

What was measured:
[1] = AUC (0 to 12 hrs) in human at 50 mg administered with fat meal every 12 hrs for 8 days measured on day 8; assay type: ADME, organism-based; design: dose 50 mg, time < 12 hr; details: plasma
[2] = AUC (0 to infinity) in human at 200 mg administered with fat meal every 12 hrs for 8 days measured on day 1; assay type: ADME, organism-based; design: dose 200 mg, time infinity; details: plasma
Homo sapiens [3] = assay: Toxicity in human assessed as dizziness at 200 mg administered every 8 hrs for 8 days; assay type: organism-based; details: in vivo
[4] = Cmax in human at 200 mg administered with fat meal every 8 hrs for 8 days measured on day 1; assay type: ADME, organism-based; design: dose 200 mg; details: in vivo
[5] = Terminal elimination half life in human at 200 mg administered with fat meal every 8 hrs for 8 days measured on day 1; assay type: ADME, organism-based; details: in vivo, read-out: beta t1/2 (converted)
Homo sapiens [6] = assay: Toxicity in human assessed as headache at 100 mg administered every 12 hrs for 8 days; assay type: organism-based; details: in vivo
Homo sapiens [7] = assay: Toxicity in human assessed as adverse effect at 200 mg administered every 8 hrs for 8 days; assay type: organism-based; details: in vivo
[8] = Tmax in fasted human at 200 mg administered as single dose; assay type: ADME, organism-based; details: in vivo
[9] = Terminal elimination half life in iv dosed monkey; assay type: ADME, organism-based, Macaca mulatta; details: rhesus monkey, in vivo, read-out: beta t1/2 (converted)
[10] = Terminal elimination half life in human at 200 mg administered with fat meal every 12 hrs for 8 days measured on day 8; assay type: ADME, organism-based; details: in vivo, read-out: beta t1/2 (converted)
[11] = AUC (0 to infinity) in human at 400 mg administered with fat meal daily for 8 days measured on day 1; assay type: ADME, organism-based; design: dose 400 mg, time infinity; details: plasma
[12] = Terminal elimination half life in human at 100 mg administered with fat meal every 12 hrs for 8 days measured on day 8; assay type: ADME, organism-based; details: in vivo, read-out: beta t1/2 (converted)
[13] = Apparent oral clearance in human at 200 mg administered with fat meal every 12 hrs for 8 days measured on day 8; assay type: ADME, organism-based; details: in vivo
[14] = Apparent oral clearance in human at 100 mg administered with fat meal every 12 hrs for 8 days measured on day 1; assay type: ADME, organism-based; details: in vivo
[15] = Tmax in human at 400 mg administered with fat meal daily for 8 days measured on day 8; assay type: ADME, organism-based; details: in vivo
[16] = Plasma concentration in human at 100 mg administered with fat meal every 12 hrs for 8 days measured on day 1 after 12 hrs of first dose; assay type: ADME, organism-based
[17] = AUC (0 to infinity) in human at 50 mg administered with fat meal every 12 hrs for 8 days measured on day 1; assay type: ADME, organism-based; design: dose 50 mg, time infinity; details: plasma
[18] = Tmax in human at 200 mg administered with fat meal every 8 hrs for 8 days measured on day 1; assay type: ADME, organism-based; details: in vivo
[19] = Apparent oral clearance in human at 400 mg administered with fat meal daily for 8 days measured on day 8; assay type: ADME, organism-based; details: in vivo
[20] = Apparent oral clearance in human at 200 mg administered with fat meal as single dose; assay type: ADME, organism-based; details: in vivo
Homo sapiens [21] = assay: Toxicity in human assessed as changes in vital sign at 50 to 400 mg after sequential repeated administration for 8 days; assay type: organism-based; details: in vivo, 192 h
[22] = Terminal elimination half life in human at 200 mg administered with fat meal every 8 hrs for 8 days measured on day 8; assay type: ADME, organism-based; details: in vivo, read-out: beta t1/2 (converted)
[23] = Cmax in human at 50 mg administered with fat meal every 12 hrs for 8 days measured on day 1; assay type: ADME, organism-based; design: dose 50 mg; details: in vivo
[24] = AUC (0 to infinity) in fasted human at 100 mg administered as single dose; assay type: ADME, organism-based; design: dose 100 mg, time infinity; details: plasma
[25] = Oral bioavailability in monkey; assay type: ADME, organism-based, Macaca mulatta; details: rhesus monkey, in vivo
[26] = AUC (0 to 12 hrs) in human at 100 mg administered with fat meal every 12 hrs for 8 days measured on day 8; assay type: ADME, organism-based; design: time < 12 hr, dose 100 mg; details: plasma
[27] = tested on: Human immunodeficiency virus 1; assay: Antiviral activity against HIV1 BaL in peripheral blood lymphocytes; assay type: functional, organism-based; details: Human immunodeficiency virus 1, BaL
Homo sapiens [28] = assay: Toxicity in human assessed as changes in 12-lead ECG at 50 to 200 mg administered as single dose; assay type: organism-based; details: in vivo
Homo sapiens [29] = assay: Toxicity in human assessed as adverse effect at 200 mg administered every 12 hrs for 8 days; assay type: organism-based; details: in vivo
[30] = Apparent oral clearance in human at 200 mg administered with fat meal every 8 hrs for 8 days measured on day 8; assay type: ADME, organism-based; details: in vivo
Homo sapiens [31] = assay: Toxicity in human assessed as changes in hematology at 50 to 400 mg after sequential repeated administration for 8 days; assay type: organism-based; details: in vivo, 192 h
[32] = Apparent oral clearance in fasted human at 50 mg administered as single dose; assay type: ADME, organism-based; details: in vivo
Homo sapiens [33] = species: Homo sapiens; assay: Toxicity in human assessed as headache at 400 mg daily for 8 days; assay type: organism-based; details: in vivo, 192 h
[34] = Cmax in human at 200 mg administered with fat meal every 12 hrs for 8 days measured on day 8; assay type: ADME, organism-based; design: dose 200 mg; details: in vivo
[35] = Cmax in human at 100 mg administered with fat meal every 12 hrs for 8 days measured on day 1; assay type: ADME, organism-based; design: dose 100 mg; details: in vivo
[36] = Terminal elimination half life in human at 50 mg administered with fat meal every 12 hrs for 8 days measured on day 1; assay type: ADME, organism-based; details: in vivo, read-out: beta t1/2 (converted)
[37] = Terminal elimination half life in human at 400 mg administered with fat meal as single dose; assay type: ADME, organism-based; details: in vivo, read-out: beta t1/2 (converted)
[38] = tested on: Human immunodeficiency virus 1; assay: Antiviral activity against HIV1 BaL in peripheral blood lymphocytes in presence of 100% human serum; assay type: functional, organism-based; details: Human immunodeficiency virus 1, BaL
[39] = Cmax in human at 400 mg administered with fat meal daily for 8 days measured on day 1; assay type: ADME, organism-based; design: dose 400 mg; details: in vivo
Homo sapiens [40] = assay: Toxicity in human assessed as headache at 200 mg administered every 12 hrs for 8 days; assay type: organism-based; details: in vivo
[41] = Tmax in fasted human at 200 mg administered with fat meal as single dose; assay type: ADME, organism-based; details: in vivo
[42] = Tmax in human at 400 mg administered with fat meal daily for 8 days measured on day 1; assay type: ADME, organism-based; details: in vivo
[43] = Apparent oral clearance in fasted human at 400 mg administered as single dose; assay type: ADME, organism-based; details: in vivo
[44] = AUC (0 to infinity) in human at 100 mg administered with fat meal every 12 hrs for 8 days measured on day 1; assay type: ADME, organism-based; design: dose 100 mg, time infinity; details: plasma
[45] = Terminal elimination half life in fasted human at 400 mg administered as single dose; assay type: ADME, organism-based; details: in vivo, read-out: beta t1/2 (converted)
Homo sapiens [46] = assay: Toxicity in human assessed as dizziness at 200 mg administered every 12 hrs for 8 days; assay type: organism-based; details: in vivo
Homo sapiens [47] = assay: Toxicity in human assessed as headache at 50 mg administered every 12 hrs for 8 days; assay type: organism-based; details: in vivo
Homo sapiens [48] = species: Homo sapiens; assay: Protein binding in human plasma by equilibrium dialysis assay; details: read-out: PB
[49] = Tmax in fasted human at 400 mg administered with fat meal as single dose; assay type: ADME, organism-based; details: in vivo
[50] = Cmax in human at 100 mg administered with fat meal every 12 hrs for 8 days measured on day 8; assay type: ADME, organism-based; design: dose 100 mg; details: in vivo
[51] = Terminal elimination half life in iv dosed rat; assay type: ADME, organism-based; details: in vivo, read-out: beta t1/2 (converted)
Homo sapiens [52] = assay: Toxicity in human assessed as flatulence at 50 to 200 mg administered as single dose; assay type: organism-based; details: in vivo
[53] = Cmax in human at 200 mg administered with fat meal every 12 hrs for 8 days measured on day 1; assay type: ADME, organism-based; design: dose 200 mg; details: in vivo
[54] = AUC (0 to 12 hrs) in human at 200 mg administered with fat meal every 12 hrs for 8 days measured on day 8; assay type: ADME, organism-based; design: dose 200 mg, time < 12 hr; details: plasma
[55] = Tmax in fasted human at 100 mg administered as single dose; assay type: ADME, organism-based; details: in vivo
[56] = Terminal elimination half life in human at 50 mg administered with fat meal every 12 hrs for 8 days measured on day 8; assay type: ADME, organism-based; details: in vivo, read-out: beta t1/2 (converted)
[57] = Terminal elimination half life in human at 400 mg administered with fat meal daily for 8 days measured on day 1; assay type: ADME, organism-based; details: in vivo, read-out: beta t1/2 (converted)

SMILES: Cn1c(=O)c(C(=O)NCCO)c(O)c2ncc(Cc3ccc(F)cc3)cc21 [GSK-364735]
- AUC at 12 h [1]: 5600 ng·h/mL
- AUC(0-inf) [2]: 9200 ng·h/mL
- Activity (Homo sapiens [3]): 13%
- Cmax [4]: 1100 ng/mL
- half-life [5]: 3.7 h
- Activity (Homo sapiens [6]): 13%
- Activity (Homo sapiens [7]): 63%
- Tmax [8]: 2.5 h
- half-life [9]: 1.5 h
- half-life [10]: 2.8 h
- AUC(0-inf) [11]: 15000 ng·h/mL
- half-life [12]: 4.2 h
- CL/F [13]: 350 mL/min
- CL/F [14]: 147 mL/min
- Tmax [15]: 4 h
- concentration at 12 h [16]: 160 ng/mL
- AUC(0-inf) [17]: 4000 ng·h/mL
- Tmax [18]: 3.75 h
- CL/F [19]: 550 mL/min
- CL/F [20]: 317 mL/min
- Activity (Homo sapiens [21]): Non-toxic
- half-life [22]: 4 h
- Cmax [23]: 740 ng/mL
- AUC(0-inf) [24]: 5200 ng·h/mL
- bioavailability [25]: 6%
- AUC at 12 h [26]: 12000 ng·h/mL
- IC50 [27]: 0.0012 µM
- Activity (Homo sapiens [28]): Non-toxic
- Activity (Homo sapiens [29]): 25%
- CL/F [30]: 683 mL/min
- Activity (Homo sapiens [31]): Non-toxic
- CL/F [32]: 267 mL/min
- Activity (Homo sapiens [33]): Non-toxic
- Cmax [34]: 1600 ng/mL
- Cmax [35]: 2500 ng/mL
- half-life [36]: 2.6 h
- half-life [37]: 5.8 h
- IC50 [38]: 0.042 µM
- IC90 [38]: 0.168 µM
- Cmax [39]: 2200 ng/mL
- Activity (Homo sapiens [40]): 13%
- Tmax [41]: 4 h
- Tmax [42]: 5 h
- CL/F [43]: 1020 mL/min
- AUC(0-inf) [44]: 11000 ng·h/mL
- half-life [45]: 6.6 h
- Activity (Homo sapiens [46]): Non-toxic
- Activity (Homo sapiens [47]): 13%
- fraction unbound (Homo sapiens [48]): 0.01
- Tmax [49]: 7 h
- Cmax [50]: 2600 ng/mL
- half-life [51]: 1.5 h
- Activity (Homo sapiens [52]): 4%
- Cmax [53]: 1500 ng/mL
- AUC at 12 h [54]: 9600 ng·h/mL
- Tmax [55]: 2.5 h
- half-life [56]: 3.7 h
- half-life [57]: 4.1 h
